Experimental data taken from patent US6458834B2, “Pentacyclic triterpenes” (Micro Flo Company, priority 1998, dated 2002).
Where two headings read alike, the source gives them in different places.

Assays:
human leucocyte elastase = target: T1, human leucocyte elastase (Homo sapiens, UniProt P08246); assay: Human leucocyte elastase (HLE) inhibition, MeO-Suc-Ala-Ala-Pro-Val-pNA substrate; format: biochemical
T1 construct: purchased Elastin Products
T1 sequence (P08246 30-267): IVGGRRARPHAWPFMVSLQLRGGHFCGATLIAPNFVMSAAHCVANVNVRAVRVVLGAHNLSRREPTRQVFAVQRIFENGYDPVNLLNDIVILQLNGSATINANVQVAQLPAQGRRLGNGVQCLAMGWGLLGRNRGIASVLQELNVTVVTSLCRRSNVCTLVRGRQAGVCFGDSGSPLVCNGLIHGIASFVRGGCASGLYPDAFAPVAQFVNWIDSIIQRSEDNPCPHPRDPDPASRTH
Procedure: Stock solutions were mixed to yield a reaction mixture consisting of 0.5 mM MeO-Suc-Ala-Ala-Pro-Val-pNA (Sigma) and […] human leucocyte elastase (Elastin Products) in 0.1 M Tris, 0.5 M NaCl and 3% DMSO (v/v) at a pH of 7.5. Test compounds were solubilized in DMSO. Equal volumes of enzyme and inhibitor were mixed and allowed to incubate for 15 minutes at room temperature. The reaction was started by the addition of a third equal volume containing substrate. Reactions were carried out in microliter plates.

plasmin = plasmin (Homo sapiens, UniProt P00747); assay: plasmin assay; format: biochemical; conditions: for inhibition at 22 µM: measured at 22 μM
Excerpt: (§1) Thus, PTs appear to bind non-covalently to hydrophobic domains of enzymes and either block an access to the enzyme active site or cause conformational change, both resulting in the enzyme's inability to perform its function.

urokinase = urokinase (Homo sapiens, UniProt P00749); assay: urokinase assay; format: biochemical; conditions: for inhibition at 22 µM: measured at 22 μM
Excerpt: as §1

thrombin = thrombin (Homo sapiens, UniProt P00734); assay: thrombin assay; format: biochemical
Excerpt: as §1

trypsin = target: T2, trypsin (Bos taurus, UniProt P00760); assay: trypsin assay; format: biochemical
T2 construct: gene PRSS1
T2 sequence (P00760 24-246): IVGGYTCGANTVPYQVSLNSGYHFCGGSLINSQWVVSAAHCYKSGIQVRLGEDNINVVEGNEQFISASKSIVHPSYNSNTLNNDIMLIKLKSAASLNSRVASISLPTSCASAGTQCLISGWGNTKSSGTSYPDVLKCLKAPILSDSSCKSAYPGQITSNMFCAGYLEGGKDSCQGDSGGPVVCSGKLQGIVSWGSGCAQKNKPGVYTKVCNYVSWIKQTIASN
Excerpt: as §1

mites = conditions: cited from earlier work
[1] = 0.1 M Tris, 0.5 M NaCl, 3% DMSO, pH 7.5, 15 min preincubation at room temperature, read-out: IC50

Chain of plasmin (P00747 581-810 limits assumed, species assumed): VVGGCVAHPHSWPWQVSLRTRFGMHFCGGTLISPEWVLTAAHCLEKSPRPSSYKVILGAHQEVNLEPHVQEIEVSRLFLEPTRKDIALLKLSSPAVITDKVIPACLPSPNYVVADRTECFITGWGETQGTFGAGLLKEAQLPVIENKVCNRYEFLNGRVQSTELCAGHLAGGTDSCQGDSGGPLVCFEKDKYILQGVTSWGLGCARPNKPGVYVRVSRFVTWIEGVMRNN
Chain of plasmin (P00747 97-580 partner limits assumed, species assumed): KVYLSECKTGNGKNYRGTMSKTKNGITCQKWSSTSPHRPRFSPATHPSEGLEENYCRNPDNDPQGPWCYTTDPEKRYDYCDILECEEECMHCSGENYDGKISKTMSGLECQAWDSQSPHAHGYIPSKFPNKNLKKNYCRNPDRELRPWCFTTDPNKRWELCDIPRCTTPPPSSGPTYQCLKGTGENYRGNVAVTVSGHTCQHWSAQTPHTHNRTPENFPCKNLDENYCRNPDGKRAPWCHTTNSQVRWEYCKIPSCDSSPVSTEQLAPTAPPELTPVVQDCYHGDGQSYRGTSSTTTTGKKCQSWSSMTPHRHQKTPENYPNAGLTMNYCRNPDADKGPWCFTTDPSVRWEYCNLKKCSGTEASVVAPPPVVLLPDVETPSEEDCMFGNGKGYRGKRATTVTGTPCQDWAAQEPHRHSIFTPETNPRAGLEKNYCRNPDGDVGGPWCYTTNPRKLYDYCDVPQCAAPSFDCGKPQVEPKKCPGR

Compound | IC50 (human leucocyte elastase) [µM] | IC50 (human leucocyte elastase; [1]) [µM] | also measured
C=C(C)[C@@H]1CC[C@]2(C)CC[C@]3(C)[C@H](CC[C@@H]4[C@@]5(C)CC[C@H](O)C(C)(C)[C@@H]5CC[C@]43C)[C@@H]12 [Example 5, Lupeol] | 8.4 | – | –
C=C(C)[C@@H]1CC[C@]2(CO)CC[C@]3(C)[C@H](CC[C@@H]4[C@@]5(C)CC[C@H](O)C(C)(C)[C@@H]5CC[C@]43C)[C@@H]12 [Example 7, Betulin] | 5 | – | –
C=C(C)[C@@H]1CC[C@]2(COC(=O)CCC(=O)O)CC[C@]3(C)[C@H](CC[C@@H]4[C@@]5(C)CC[C@H](O)C(C)(C)[C@@H]5CC[C@]43C)[C@@H]12 [Example 8, 28-Succinylbetulin] | – | 6.3 | –
C=C(C)[C@@H]1CC[C@]2(C(=O)O)CC[C@]3(C)[C@H](CC[C@@H]4[C@@]5(C)CC[C@H](O)C(C)(C)[C@@H]5CC[C@]43C)[C@@H]12 [Example 9, Betulinic acid] | – | 3.3 | IC50 (plasmin): 6.2 µM; IC50 (urokinase): 5 µM; IC50 (thrombin): 2.3 µM; IC50 (trypsin): 8.5 µM
C=C(C)[C@@H]1CC[C@]2(C(=O)OC)CC[C@]3(C)[C@H](CC[C@@H]4[C@@]5(C)CC[C@H](O)C(C)(C)[C@@H]5CC[C@]43C)[C@@H]12 [Example 10, Methyl ester of betulinic acid] | – | 5.7 | –
C=C(C)C1CCC2(C(=O)O)CCC3(C)C(CCC4C5(C)CCC(OC(C)=O)C(C)(C)C5CCC43C)C12 (stereo not shown) [Example 11, Acetylbetulinic acid] | 7 | – | –
C=C(C)[C@@H]1CC[C@]2(C(=O)O)CC[C@]3(C)[C@H](CC[C@@H]4[C@@]5(C)CCC(=O)C(C)(C)[C@@H]5CC[C@]43C)[C@@H]12 [Example 12, 3-Ketobetulinic acid] | – | 11 | –
C=C(C)C1CCC2(C(=O)O)CCC3(C)C(CCC4C5(C)CCC(OS(C)(=O)=O)C(C)(C)C5CCC43C)C12 (stereo not shown) [Example 13, Methanesulfonylbetulinic acid] | 11.2 | – | melting point: 210 to 212 °C
C=C(C)C1CCC2(C(=O)OC)CCC3(C)C(CCC4C5(C)CCC(OS(C)(=O)=O)C(C)(C)C5CCC43C)C12 (stereo not shown) [Example 14, Methyl ester of 3-methanesulfonylbetulinic acid] | – | 7.3 | –
CC1(C)CC[C@]2(C)CC[C@]3(C)C(=CC[C@@H]4[C@@]5(C)CC[C@H](O)C(C)(C)[C@@H]5CC[C@]43C)[C@@H]2C1 [Example 15, β-Amyrin] | – | 5.4 | –
C[C@H]1[C@H](C)CC[C@]2(CO)CC[C@]3(C)C(=CC[C@@H]4[C@@]5(C)CC[C@H](O)C(C)(C)[C@@H]5CC[C@]43C)[C@H]12 [Example 16, Uvaol] | 4.5 | – | –
C[C@H]1[C@H](C)CC[C@]2(C(=O)O)CC[C@]3(C)C(=CC[C@@H]4[C@@]5(C)CC[C@H](O)C(C)(C)[C@@H]5CC[C@]43C)[C@H]12 [Example 17, Ursolic acid] | 7.7 | – | inhibition at 22 µM (plasmin): 43%; inhibition at 22 µM (urokinase): 83%; effects towards the mites and their survival (mites): toxicity and feeding deterrent effects; reduction of ingestion time on diet containing ursolic acid (mites; diet containing ursolic acid): about 30%
COC(=O)[C@]12CC[C@@H](C)[C@H](C)[C@H]1C1=CC[C@@H]3[C@@]4(C)CC[C@H](O)C(C)(C)[C@@H]4CC[C@@]3(C)[C@]1(C)CC2 [Example 18, Ursolic acid, Me ester] | – | 4.9 | –
CC1(C)CC[C@]2(C(=O)O)CC[C@]3(C)C(=CC[C@@H]4[C@@]5(C)CC[C@H](O)C(C)(C)[C@@H]5CC[C@]43C)[C@@H]2C1 [Example 20, Oleanolic acid] | – | – | inhibition at 22 µM (plasmin): 25%; inhibition at 22 µM (urokinase): 40%
COC(=O)[C@]12CCC(C)(C)C[C@H]1C1=CC[C@@H]3[C@@]4(C)CC[C@H](O)C(C)(C)[C@@H]4CC[C@@]3(C)[C@]1(C)CC2 [Example 21, Oleanolic acid, Me ester] | – | 8.5 | –
CC1(C)CC[C@]2(C(=O)O)CC[C@]3(C)C(=CC[C@@H]4[C@@]5(C)CC[C@H](O)[C@@](C)(CO)[C@@H]5CC[C@]43C)[C@@H]2C1 [Example 23, Hederagenin] | 16.8 | – | –
CC1(C)CC[C@]2(C(=O)O)[C@H](O)C[C@]3(C)C(=CC[C@@H]4[C@@]5(C)CC[C@H](O)[C@@](C)(CO)[C@@H]5CC[C@]43C)[C@@H]2C1 [Example 24, Caulophyllogenin] | – | – | inhibition of HLE at a single concentration (human leucocyte elastase; @ 21°): 0% @ 21°
Lupeol acetate [Example 6] | – | 14.9 | –
